In one assay the test system is amylase secretion. Put plainly: Effect on amylase secretion in rats (stimulated by CCK-8). The conditions noted are these: Rattus norvegicus, sc; intraduodenal administration 30 minutes before CCK-8 (10 µg/kg, subcutaneous); anesthetized male Wistar rats; amylase in biliopancreatic juice; read-out: ED₅₀. The class given is in vivo. As to the method: Male Wistar rats were anesthetized with urethane (1.5 g/kg, S.C.), and tracheal cannula was inserted. Biliopancreatic juice was collected from the cannula which had been inserted into the common bile duct. Thirty minutes after intraduodenal administration of test drug, anylase secretion was stimulated by subcutaneous injection of CCK-8 (10 µg/kg). Amylase concentration in the sample collected every 30 minutes during experiment was assayed using Amylase B Test (Wako), and ED₅₀ value was calculated.

For the next assay, the system named is Gallbladder strips. Put plainly: CCK-antagonism in isolated gallbladder (contraction of strips induced by CCK-8). The class given is cell-based, Hartley guinea-pig. The settings on record: Cavia porcellus; antagonism of gallbladder contraction induced by 10⁻⁸ M CCK-8, guinea-pig strips, Krebs solution, 37°C; read-out: IC₅₀. The method, then: Gallbladder strips isolated from male Hartley guinea-pig were prepared and suspended in Magnus bath filled with Krebs solution (1 g of initial tension). The solution kept at 37°C was aerated with a mixture of 95% O₂ and 5% CO₂. The isometric contraction of strips was recorded through a force-displacement transducer. Antagonism by test drugs against gallbladder contraction induced by 10⁻⁸ M CCK-8 was examined and IC₅₀ value was calculated.

Turning to `CCCCCN(CCCCC)C(=O)C(CC(=O)O)CS(=O)(=O)c1ccc(Cl)c(Cl)c1` (racemic) [Compound 29], in the assay on amylase secretion, the ED50 was found to be 9.9 mg/kg. Further, the IC50 with Gallbladder strips was 37 µM. Regarding `CCCCCCN(CCCCCC)C(=O)C(CCC(=O)O)CS(=O)(=O)c1ccc(Cl)c(Cl)c1` (racemic) [Compound 33], the ED50 in the assay with amylase secretion came to 7.1 mg/kg.

(Values after EP0508004A1, “Phenylsulfonylalkanoic acid compounds” (Kissei Pharmaceutical Co., Ltd., priority 1991, dated 1992).)
